Tests used:
[1] = test system: saliva; assay: ex vivo production of H2S by saliva (headspace, gas chromatograph with chemiluminescent sulfur detector); assay type: cell-based, human; conditions: saliva mixed with cysteine
[2] = test system: salivary bacteria; assay: nitrate reductase (NR) activity of human salivary bacteria (Griess reagent); assay type: cell-based
Protocol: Human stimulated saliva was collected from two subjects and tested for NR activity in the presence of nitrate, cysteine and a combination of nitrate and cysteine. The Griess test was used for nitrite production.
Two subjects were evaluated in this study. The subjects refrained from oral hygiene and eating the night before and morning of the test and their stimulated saliva was collected after chewing 1 g of gum base for 5 minutes. The saliva samples were stored immediately on ice, diluted 1:1 with D.I. H2O and used as a bacterial source for nitrate reductase (NR) activity testing under anaerobic condition.
The contents in each reaction mixture contained (mL):
Detection of the end product of NR and nitrite was by the Griess reagent at OD550 nm readings.

[3] = test system: Veillonella atypica (ATCC 17744) (V.a.); assay: nitrate reductase (NR) activity of V.a (Griess test); assay type: cell-based; conditions: Cysteine 1%
Protocol: (§1) For evaluation of nitric oxide producing capability of oral bacteria, overnight cultures of test organisms were washed once and transferred into a medium without any nitrate or nitrite compounds. A 0.5% (or 1%) KNO3 was added to the medium, and further incubated anaerobically at 37° C. for 24-48 hours. The concentration of nitrite (due to reduction of nitrate by nitrate reductase) was determined by Griess Test over a desired period of time.
(§2) To examine the effect of natural and chemical antimicrobial agents on NO production, test bacteria were pre-exposed to magnolia bark extract (MBE) (a natural germ-kill compound), peppermint oil, and chlorhexidine (CHX). The activities of nitrate reductase from oral bacteria were assayed by Griess test as described above. No treatment controls were included for each test bacterial species. The production of nitrite was reduced if the test antimicrobial compounds affected the nitrate reductase activity. Dose response curves were prepared.
V. atypica was grown in RCM medium without (NH4)2SO4 (to avoid the NH4 affecting Griess reagent); and without agar (0.05%, to avoid affecting the OD measurement).
The method used was the same as that for A.a., except the V.a cell concentration was adjusted to OD550 nm=0.7 (10^8 CFR/ml) in Reduced Transport buffer. The NR activity was also determined in the same buffer system. […]
(§3) Test bacteria cells were incubated with 1% cysteine in growth medium and 0.3% of a nitrate source. Controls contained no cysteine.

[4] = test system: Aggregatibacter actinomycetemcomitans (A.a.); assay: nitrate reductase (NR) activity of A.a. (Griess test); assay type: cell-based; conditions: for NR activity (OD) of A.a in the presence of cysteine: Cysteine 1%, 0.3% nitrate source
Protocol: as §1, §2
A. actinomycetemcomitans (A.a.) was grown anaerobically in THB broth supplemented with 1% yeast extract with 0.001% Hemin, and 0.0001% Vitamin K.
The nitrate source KNO3 (0.1% final) was added to respective growth media for individual test bacteria and incubated for 24-48 hours, then 20 μl of the culture broth was withdrawn and tested for nitrite with Griess reagent.
Test bacteria were grown in respective media anaerobically for 48 hours. Cells were centrifuged and re-suspended in buffer or fresh medium for NR activity testing. […]
as §3

For `N[C@@H](CS)C(=O)O` [cysteine, L-cysteine], the “H2S generated in the headspace air” value [1] was 20 ppm, the “reduction of NR activity” value ([2]; addition of cysteine, pooled saliva from 4 subjects, OD600 nm=0.7, 1.0 and 1.5) was 23-49% and the “NR activity of salivary bacteria” value ([2]; cysteine 0.25% in addition to nitrate (KNO3 3%), saliva of two subjects) was “decrease in NR activity”. The “NR activity (OD) of V.a in the presence of cysteine” value ([3]; 1st trial, 2 hr) was 0.372 OD, the “NR activity (OD) of V.a in the presence of cysteine” value ([3]; 1st trial, 3 hr) was 0.711 OD and the “NR activity (OD) of V.a in the presence of cysteine” value ([3]; 2nd trial, 2 hr) was 0.487 OD. For the same molecule, the “NR activity (OD) of V.a in the presence of cysteine” value ([3]; 2nd trial, 3 hr) was 0.808 OD, the “NR activity (OD) of V.a in the presence of cysteine” value ([3]; 3rd trial, 2 hr) was 1.139 OD and the “NR activity (OD) of V.a in the presence of cysteine” value ([3]; 3rd trial, 3 hr) was 1.144 OD. For the same molecule, the “NR activity (OD) of A.a in the presence of cysteine” value ([4]; 1st trial, 2 hr) was 0.207 OD, the “NR activity (OD) of A.a in the presence of cysteine” value ([4]; 1st trial, 3 hr) was 0.672 OD and the “NR activity (OD) of A.a in the presence of cysteine” value ([4]; 2nd trial, 2 hr) was 0.994 OD. For the same molecule, the “NR activity (OD) of A.a in the presence of cysteine” value ([4]; 2nd trial, 3 hr) was 0.928 OD, the “NR activity (OD) of A.a in the presence of cysteine” value ([4]; 3rd trial, 2 hr) was 0.832 OD and the “NR activity (OD) of A.a in the presence of cysteine” value ([4]; 3rd trial, 3 hr) was 0.919 OD. The “NR activity of A.a” value ([4]; addition of cysteine (1%)) was “not significantly affected”.

`O=[N+]([O-])[O-].[K+]` [KNO3, potassium nitrate] was tested, and the “NR activity of salivary bacteria (nitrite production)” value ([2]; KNO3 3%, saliva of two subjects) was “induced NR activity”.

From patent US20260263334A1, “COMPOSITIONS CONTAINING NITRATE-RICH FOODS AND EXTRACTS FOR SHIFTING THE ORAL MICROBIOME” (WM. WRIGLEY JR. COMPANY, priority 2023, published 2026)
